Test results from PubChem BioAssay (NCI).
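GI50 marks 50% less growth. TGI is the concentration that stops growth completely.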

Tests used:
Assay in all cases: NCI anticancer screen, dose series, 384-well format
786-0 renal = system: 786-0 renal
A498 renal = system: A498 renal
A549 NSCLC = system: A549 NSCLC
ACHN renal = system: ACHN renal
BT-549 breast = system: BT-549 breast
CAKI-1 renal = system: CAKI-1 renal
CCRF-CEM leukemia = system: CCRF-CEM leukemia
COLO 205 colon = system: COLO 205 colon
DU-145 prostate = system: DU-145 prostate
EKVX NSCLC = system: EKVX NSCLC
HCC-2998 colon = system: HCC-2998 colon
HCT-15 colon = system: HCT-15 colon
HL-60(TB) leukemia = system: HL-60(TB) leukemia
HOP-62 NSCLC = system: HOP-62 NSCLC
HOP-92 NSCLC = system: HOP-92 NSCLC
HS 578T breast = system: HS 578T breast
HT29 colon = system: HT29 colon
IGROV1 ovarian = system: IGROV1 ovarian
KM12 colon = system: KM12 colon
M14 melanoma = system: M14 melanoma
MALME-3M melanoma = system: MALME-3M melanoma
MCF7 breast = system: MCF7 breast
MDA-MB-231 breast = system: MDA-MB-231 breast
MDA-MB-435 melanoma = system: MDA-MB-435 melanoma
MDA-MB-468 breast = system: MDA-MB-468 breast
MOLT-4 leukemia = system: MOLT-4 leukemia
NCI-H226 lung = system: NCI-H226 lung
NCI-H23 lung = system: NCI-H23 lung
NCI-H322M lung = system: NCI-H322M lung
NCI-H460 NSCLC = system: NCI-H460 NSCLC
NCI-H522 lung = system: NCI-H522 lung
NCI/ADR-RES ovarian = system: NCI/ADR-RES ovarian
OVCAR-3 ovarian = system: OVCAR-3 ovarian
OVCAR-4 ovarian = system: OVCAR-4 ovarian
OVCAR-5 ovarian = system: OVCAR-5 ovarian
OVCAR-8 ovarian = system: OVCAR-8 ovarian
PC-3 prostate = system: PC-3 prostate
RPMI-8226 leukemia = system: RPMI-8226 leukemia
RXF 393 renal = system: RXF 393 renal
SF-268 CNS = system: SF-268 CNS
SF-295 CNS = system: SF-295 CNS
SF-539 CNS = system: SF-539 CNS
SK-MEL-2 melanoma = system: SK-MEL-2 melanoma
SK-MEL-28 melanoma = system: SK-MEL-28 melanoma
SK-MEL-5 melanoma = system: SK-MEL-5 melanoma
SK-OV-3 ovarian = system: SK-OV-3 ovarian
SN12C renal = system: SN12C renal
SNB-19 CNS = system: SNB-19 CNS
SR leukemia = system: SR leukemia
SW-620 colon = system: SW-620 colon
T-47D breast = system: T-47D breast
TK-10 renal = system: TK-10 renal
U251 glioblastoma = system: U251 glioblastoma
UACC-257 melanoma = system: UACC-257 melanoma
UACC-62 melanoma = system: UACC-62 melanoma

With O=C(O)C(=O)CBr the GI50 (786-0 renal) was greater than 100 µM, the TGI (786-0 renal) was greater than 100 µM and the GI50 (A498 renal) was greater than 100 µM. It also gave a TGI (A498 renal) greater than 100 µM, a GI50 (A549 NSCLC) greater than 100 µM and a TGI (A549 NSCLC) greater than 100 µM. For the same molecule, the GI50 (ACHN renal) was greater than 100 µM, the TGI (ACHN renal) was greater than 100 µM and the GI50 (BT-549 breast) was greater than 100 µM. For the same molecule, the TGI (BT-549 breast) was greater than 100 µM, the GI50 (CAKI-1 renal) was greater than 100 µM and the TGI (CAKI-1 renal) was greater than 100 µM. For the same molecule, the GI50 (CCRF-CEM leukemia) was 43.2 µM, the TGI (CCRF-CEM leukemia) was greater than 100 µM and the GI50 (COLO 205 colon) was greater than 100 µM. The TGI (COLO 205 colon) was greater than 100 µM, the GI50 (DU-145 prostate) was greater than 100 µM and the TGI (DU-145 prostate) was greater than 100 µM. It also gave a GI50 (EKVX NSCLC) greater than 100 µM, a TGI (EKVX NSCLC) greater than 100 µM and a GI50 (HCC-2998 colon) greater than 100 µM. It also gave a TGI (HCC-2998 colon) greater than 100 µM, a GI50 (HCT-15 colon) greater than 100 µM and a TGI (HCT-15 colon) greater than 100 µM. It also gave a GI50 (HL-60(TB) leukemia) of 23.9 µM, a TGI (HL-60(TB) leukemia) of 45.3 µM and a GI50 (HOP-62 NSCLC) of 34.7 µM. It also gave a TGI (HOP-62 NSCLC) greater than 100 µM, a GI50 (HOP-92 NSCLC) greater than 100 µM and a TGI (HOP-92 NSCLC) greater than 100 µM. It also gave a GI50 (HS 578T breast) greater than 100 µM, a TGI (HS 578T breast) greater than 100 µM and a GI50 (HT29 colon) greater than 100 µM. The TGI (HT29 colon) was greater than 100 µM, the GI50 (IGROV1 ovarian) was greater than 100 µM and the TGI (IGROV1 ovarian) was greater than 100 µM. For the same molecule, the GI50 (KM12 colon) was greater than 100 µM, the TGI (KM12 colon) was greater than 100 µM and the GI50 (M14 melanoma) was greater than 100 µM. For the same molecule, the TGI (M14 melanoma) was greater than 100 µM, the GI50 (MALME-3M melanoma) was greater than 100 µM and the TGI (MALME-3M melanoma) was greater than 100 µM. It also gave a GI50 (MCF7 breast) greater than 100 µM, a TGI (MCF7 breast) greater than 100 µM and a GI50 (MDA-MB-231 breast) greater than 100 µM. It also gave a TGI (MDA-MB-231 breast) greater than 100 µM, a GI50 (MDA-MB-435 melanoma) greater than 100 µM and a TGI (MDA-MB-435 melanoma) greater than 100 µM. For the same molecule, the GI50 (MDA-MB-468 breast) was 24.7 µM, the TGI (MDA-MB-468 breast) was 56.8 µM and the GI50 (MOLT-4 leukemia) was greater than 100 µM. For the same molecule, the TGI (MOLT-4 leukemia) was greater than 100 µM, the GI50 (NCI-H226 lung) was greater than 100 µM and the TGI (NCI-H226 lung) was greater than 100 µM. It also gave a GI50 (NCI-H23 lung) of 55.7 µM, a TGI (NCI-H23 lung) greater than 100 µM and a GI50 (NCI-H322M lung) greater than 100 µM. It also gave a TGI (NCI-H322M lung) greater than 100 µM, a GI50 (NCI-H460 NSCLC) greater than 100 µM and a TGI (NCI-H460 NSCLC) greater than 100 µM. The GI50 (NCI-H522 lung) was 23.5 µM, the TGI (NCI-H522 lung) was 47.8 µM and the GI50 (NCI/ADR-RES ovarian) was greater than 100 µM. For the same molecule, the TGI (NCI/ADR-RES ovarian) was greater than 100 µM, the GI50 (OVCAR-3 ovarian) was greater than 100 µM and the TGI (OVCAR-3 ovarian) was greater than 100 µM. It also gave a GI50 (OVCAR-4 ovarian) of 32.3 µM, a TGI (OVCAR-4 ovarian) greater than 100 µM and a GI50 (OVCAR-5 ovarian) greater than 100 µM. The TGI (OVCAR-5 ovarian) was greater than 100 µM, the GI50 (OVCAR-8 ovarian) was greater than 100 µM and the TGI (OVCAR-8 ovarian) was greater than 100 µM. It also gave a GI50 (PC-3 prostate) greater than 100 µM, a TGI (PC-3 prostate) greater than 100 µM and a GI50 (RPMI-8226 leukemia) greater than 100 µM. For the same molecule, the TGI (RPMI-8226 leukemia) was greater than 100 µM, the GI50 (RXF 393 renal) was 22.5 µM and the TGI (RXF 393 renal) was 57.1 µM. It also gave a GI50 (SF-268 CNS) greater than 100 µM, a TGI (SF-268 CNS) greater than 100 µM and a GI50 (SF-295 CNS) greater than 100 µM. For the same molecule, the TGI (SF-295 CNS) was greater than 100 µM, the GI50 (SF-539 CNS) was greater than 100 µM and the TGI (SF-539 CNS) was greater than 100 µM. For the same molecule, the GI50 (SK-MEL-2 melanoma) was greater than 100 µM, the TGI (SK-MEL-2 melanoma) was greater than 100 µM and the GI50 (SK-MEL-28 melanoma) was greater than 100 µM. The TGI (SK-MEL-28 melanoma) was greater than 100 µM, the GI50 (SK-MEL-5 melanoma) was greater than 100 µM and the TGI (SK-MEL-5 melanoma) was greater than 100 µM. It also gave a GI50 (SK-OV-3 ovarian) greater than 100 µM, a TGI (SK-OV-3 ovarian) greater than 100 µM and a GI50 (SN12C renal) greater than 100 µM. It also gave a TGI (SN12C renal) greater than 100 µM, a GI50 (SNB-19 CNS) greater than 100 µM and a TGI (SNB-19 CNS) greater than 100 µM. It also gave a GI50 (SR leukemia) greater than 100 µM, a TGI (SR leukemia) greater than 100 µM and a GI50 (SW-620 colon) greater than 100 µM. It also gave a TGI (SW-620 colon) greater than 100 µM, a GI50 (T-47D breast) greater than 100 µM and a TGI (T-47D breast) greater than 100 µM. For the same molecule, the GI50 (TK-10 renal) was greater than 100 µM, the TGI (TK-10 renal) was greater than 100 µM and the GI50 (U251 glioblastoma) was greater than 100 µM. For the same molecule, the TGI (U251 glioblastoma) was greater than 100 µM, the GI50 (UACC-257 melanoma) was greater than 100 µM and the TGI (UACC-257 melanoma) was greater than 100 µM. For the same molecule, the GI50 (UACC-62 melanoma) was greater than 100 µM and the TGI (UACC-62 melanoma) was greater than 100 µM.
